# Experimental data: patent US20250235455A1, “AQUEOUS TICAGRELOR SOLUTIONS, METHOD OF MANUFACTURING AND USES” (HYLORIS DEVELOPMENTS SA, priority 2022, published 2025)
# Marks after values point to notes of the source that are not given here.
# Columns and labels:
# Format in all cases: physicochemical
# [1] = Impact of ticagrelor particle size on dissolution
# Text: Two different particle size diameters for the ticagrelor active ingredient were screened, 5.5 and 15 micrometers. The pH and osmolality were not affected.
# [2] = Solubility of ticagrelor in aqueous vitamin E TPGS solutions
# Experimental: Aqueous ticagrelor solutions were prepared using vitamin E TPGS as solubilizer for ticagrelor. Water soluble vitamin E TPGS was added to water to obtain different concentrations of 2.5 and 5.0 and 10.0 w/v % aqueous vitamin E TPGS solutions. To these solutions, kept at a temperate of 45° C.+/−5° C., portions of ticagrelor were gradually added.
# In the experiment summarized in Table 29, 3 mg ticagrelor portions were added step-by-step to a 50 ml aqueous vitamin E TPGS solution (1st stage).
# 20 ml of each diluent were then used in a 2nd stage study. To 20 ml of each diluent 10 mg ticagrelor portions were added. This was reduced to 5 mg when the dissolution was taking longer.
# [3] = Diluent tests of 5 mg/ml ticagrelor-cyclodextrin solutions; conditions: for Appearance, undiluted: 5 mg/ml; for Appearance in 5% dextrose / Appearance in NaCl 0.9%: diluted to 0.1 mg/ml
# Experimental: 5 mg/ml ticagrelor-cyclodextrin solutions with varying amounts of HPβCD were diluted with normal saline, 5% dextrose solution or Ringer's lactate solution. The stability was screened.
# [4] = Solubility of ticagrelor in HPβCD (appearance on shaking platform)
# Experimental: In a first example two different types of cyclodextrin were used and compared for the solubilization of ticagrelor. An unbuffered stock solution of HPβCD or SBECD was made in water at the target concentrations of 20 w/w %, 25 w/w %, 30 w/w %, 35 w/w % and 40 w/w %. Ticagrelor was added slowly under vortex. Ticagrelor was used at concentrations of 5, 10 or 14 mg/ml in milli Q water. The ticagrelor-cyclodextrin solutions were left on a shaking platform. No sonification or heat was applied.
# [5] = HPβCD 20% w/w, ticagrelor 5 mg/ml
# [6] = HPβCD 20% w/w, ticagrelor 10 mg/ml
# [7] = HPβCD 20% w/w, ticagrelor 14 mg/ml
# [8] = HPβCD 25% w/w, ticagrelor 5 mg/ml
# [9] = HPβCD 25% w/w, ticagrelor 10 mg/ml
# [10] = HPβCD 25% w/w, ticagrelor 14 mg/ml
# [11] = HPβCD 30% w/w, ticagrelor 5 mg/ml
# [12] = HPβCD 30% w/w, ticagrelor 10 mg/ml
# [13] = HPβCD 30% w/w, ticagrelor 14 mg/ml
# [14] = HPβCD 35% w/w, ticagrelor 5 mg/ml
# [15] = HPβCD 35% w/w, ticagrelor 10 mg/ml
# [16] = HPβCD 35% w/w, ticagrelor 14 mg/ml
# [17] = HPβCD 40% w/w, ticagrelor 5 mg/ml
# [18] = HPβCD 40% w/w, ticagrelor 10 mg/ml
# [19] = HPβCD 40% w/w, ticagrelor 14 mg/ml
smiles,measurement,setting,value
"CCCSc1nc(N[C@@H]2C[C@H]2c2ccc(F)c(F)c2)c2nnn([C@@H]3C[C@H](OCCO)[C@@H](O)[C@H]3O)c2n1 [Ticagrelor, (1S,2S,3R,5S)-3-{7-[(1R,2S)-2-(3,4-difluorophenyl)cyclopropylamino]5-(propylthio)-3H-(1,2,3)triazolo (4,5-D)pyrimidin-3-yl}-5-(2 hydroxyethoxy)cyclopentane-1,2-diol]",Dissolution time,"[1]; D90 5.5 μm, micronized",33 min
same,Osmolality,"[1]; D90 5.5 μm, micronized",751 mOsm/kg
same,pH,"[1]; D90 5.5 μm, micronized",7.68
same,Dissolution time,"[1]; D90 15 μm, unmicronized",125 min
same,Osmolality,"[1]; D90 15 μm, unmicronized",753 mOsm/kg
same,pH,"[1]; D90 15 μm, unmicronized",7.70
same,Time for 10 mg ticagrelor to dissolve,[2],5 to 10 min
same,"Appearance, undiluted",[3]; HPβCD 22.5% w/w,Turbid; clear after heating to 40 °C
same,"Appearance, undiluted",[3]; HPβCD 25.0% w/w,Turbid; clear after heating to 40 °C
same,"Appearance, undiluted",[3]; HPβCD 27.5% w/w,Turbid; clear after heating to 40 °C
same,"Appearance, undiluted",[3]; HPβCD 30.0% w/w,Clear solution
same,"Appearance, undiluted",[3]; HPβCD 32.5% w/w,Clear solution
same,Appearance in 5% dextrose,[3]; HPβCD 22.5% w/w,Clear solution
same,Appearance in NaCl 0.9%,[3]; HPβCD 22.5% w/w,Turbid
same,Appearance in 5% dextrose,[3]; HPβCD 25.0% w/w,Clear solution
same,Appearance in NaCl 0.9%,[3]; HPβCD 25.0% w/w,Turbid
same,Appearance in 5% dextrose,[3]; HPβCD 27.5% w/w,Clear solution
same,Appearance in NaCl 0.9%,[3]; HPβCD 27.5% w/w,Turbid
same,Appearance in 5% dextrose,[3]; HPβCD 30.0% w/w,Clear solution
same,Appearance in NaCl 0.9%,[3]; HPβCD 30.0% w/w,Turbid
same,Appearance in 5% dextrose,[3]; HPβCD 32.5% w/w,Clear solution
same,Appearance in NaCl 0.9%,[3]; HPβCD 32.5% w/w,Clear solution
same,Appearance with diluent,[3]; Normal saline and Ringer's lactate solution as diluent,turbid solutions
same,Appearance,"[4]; 5 mg/ml ticagrelor with 25, 30, 35 and 40 w/w % HPβCD",Clear
same,Appearance on standing,"[4]; 5 mg/ml, HPβCD 40%, 35% or 30% w/w in milliQ water, at least three days at room temperature and several days at 4° C.",remained clear
same,Appearance After 5 min of shaking,[4]; [5],− (translucent solution with precipitation)
same,Appearance After 30 min of shaking,[4]; [5],+/−
same,Appearance After 60 min of shaking,[4]; [5],+/−
same,Appearance After 3 h of shaking,[4]; [5],+/−
same,Appearance After overnight shaking,[4]; [5],− (translucent solution with precipitation)
same,Appearance After 5 min of shaking,[4]; [6],− (translucent solution with precipitation)
same,Appearance After 30 min of shaking,[4]; [6],− (translucent solution with precipitation)
same,Appearance After 60 min of shaking,[4]; [6],− (translucent solution with precipitation)
same,Appearance After 3 h of shaking,[4]; [6],− (translucent solution with precipitation)
same,Appearance After overnight shaking,[4]; [6],− (translucent solution with precipitation)
same,Appearance After 5 min of shaking,[4]; [7],− (translucent solution with precipitation)
same,Appearance After 30 min of shaking,[4]; [7],− (translucent solution with precipitation)
same,Appearance After 60 min of shaking,[4]; [7],− (translucent solution with precipitation)
same,Appearance After 3 h of shaking,[4]; [7],− (translucent solution with precipitation)
same,Appearance After overnight shaking,[4]; [7],− (translucent solution with precipitation)
same,Appearance After 5 min of shaking,[4]; [8],− (translucent solution with precipitation)
same,Appearance After 30 min of shaking,[4]; [8],+/−
same,Appearance After 60 min of shaking,[4]; [8],+/−
same,Appearance After 3 h of shaking,[4]; [8],+/−
same,Appearance After overnight shaking,"[4]; HPβCD 25% w/w, ticagrelor 5 mg/ml, after one hour of sonication","+* (clear, appeared completely dissolved)"
same,Appearance After 5 min of shaking,[4]; [9],− (translucent solution with precipitation)
same,Appearance After 30 min of shaking,[4]; [9],− (translucent solution with precipitation)
same,Appearance After 60 min of shaking,[4]; [9],− (translucent solution with precipitation)
same,Appearance After 3 h of shaking,[4]; [9],− (translucent solution with precipitation)
same,Appearance After overnight shaking,[4]; [9],− (translucent solution with precipitation)
same,Appearance After 5 min of shaking,[4]; [10],− (translucent solution with precipitation)
same,Appearance After 30 min of shaking,[4]; [10],− (translucent solution with precipitation)
same,Appearance After 60 min of shaking,[4]; [10],− (translucent solution with precipitation)
same,Appearance After 3 h of shaking,[4]; [10],− (translucent solution with precipitation)
same,Appearance After overnight shaking,[4]; [10],− (translucent solution with precipitation)
same,Appearance After 5 min of shaking,[4]; [11],− (translucent solution with precipitation)
same,Appearance After 30 min of shaking,[4]; [11],+/−
same,Appearance After 60 min of shaking,[4]; [11],+/−
same,Appearance After 3 h of shaking,[4]; [11],+/−
same,Appearance After overnight shaking,[4]; [11],"+ (clear, appeared completely dissolved)"
same,Appearance After 5 min of shaking,[4]; [12],− (translucent solution with precipitation)
same,Appearance After 30 min of shaking,[4]; [12],− (translucent solution with precipitation)
same,Appearance After 60 min of shaking,[4]; [12],− (translucent solution with precipitation)
same,Appearance After 3 h of shaking,[4]; [12],− (translucent solution with precipitation)
same,Appearance After overnight shaking,[4]; [12],− (translucent solution with precipitation)
same,Appearance After 5 min of shaking,[4]; [13],− (translucent solution with precipitation)
same,Appearance After 30 min of shaking,[4]; [13],− (translucent solution with precipitation)
same,Appearance After 60 min of shaking,[4]; [13],− (translucent solution with precipitation)
same,Appearance After 3 h of shaking,[4]; [13],− (translucent solution with precipitation)
same,Appearance After overnight shaking,[4]; [13],− (translucent solution with precipitation)
same,Appearance After 5 min of shaking,[4]; [14],+/−
same,Appearance After 30 min of shaking,[4]; [14],+/−
same,Appearance After 60 min of shaking,[4]; [14],+/−
same,Appearance After 3 h of shaking,[4]; [14],+/−
same,Appearance After overnight shaking,[4]; [14],"+ (clear, appeared completely dissolved)"
same,Appearance After 5 min of shaking,[4]; [15],− (translucent solution with precipitation)
same,Appearance After 30 min of shaking,[4]; [15],+/−
same,Appearance After 60 min of shaking,[4]; [15],+/−
same,Appearance After 3 h of shaking,[4]; [15],+/−
same,Appearance After overnight shaking,[4]; [15],"+ (clear, appeared completely dissolved)"
same,Appearance After 5 min of shaking,[4]; [16],− (translucent solution with precipitation)
same,Appearance After 30 min of shaking,[4]; [16],+/−
same,Appearance After 60 min of shaking,[4]; [16],+/−
same,Appearance After 3 h of shaking,[4]; [16],+/−
same,Appearance After overnight shaking,[4]; [16],+/−
same,Appearance After 5 min of shaking,[4]; [17],"+ (clear, appeared completely dissolved)"
same,Appearance After 30 min of shaking,[4]; [17],"+ (clear, appeared completely dissolved)"
same,Appearance After 60 min of shaking,[4]; [17],"+ (clear, appeared completely dissolved)"
same,Appearance After 3 h of shaking,[4]; [17],"+ (clear, appeared completely dissolved)"
same,Appearance After overnight shaking,[4]; [17],"+ (clear, appeared completely dissolved)"
same,Appearance After 5 min of shaking,[4]; [18],− (translucent solution with precipitation)
same,Appearance After 30 min of shaking,[4]; [18],+/−
same,Appearance After 60 min of shaking,[4]; [18],+/−
same,Appearance After 3 h of shaking,[4]; [18],+/−
same,Appearance After overnight shaking,[4]; [18],"+ (clear, appeared completely dissolved)"
same,Appearance After 5 min of shaking,[4]; [19],− (translucent solution with precipitation)
same,Appearance After 30 min of shaking,[4]; [19],+/−
same,Appearance After 60 min of shaking,[4]; [19],+/−
same,Appearance After 3 h of shaking,[4]; [19],+/−
